Data set [1] in a line: LNP size, PDI and zeta potential by Dynamic Light Scattering (Method A). Type of data set: physicochemical. The settings on record: LNP formulated by Method A; for Zeta potential (mV): 1xPBS pH 7.4; for PDI / Size (nm): DLS; for Size (nm): Luciferase-mRNA loaded. The method, boiled down:
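LNPs formulated by microfluidic mixing of mRNA in 10 mM citrate pH 4.0 with ethanolic lipid mix (ionizable lipid added to master mix) at 3:1 aqueous:lipid ratio, then dialysed (100 kDa MWCO). Size, PDI and zeta potential measured by dynamic light scattering.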

In the next data set the test system is HeLa cells. Briefly: Transfection efficiency with Luciferase-mRNA, Nano-Glo assay (Method A). Type of data set: cell-based. The note with it: 100 ng Luciferase (SecNLuc) mRNA, 24 h, luminescence. The method, boiled down: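 LNPs carrying secreted NanoLuc mRNA (100, 50 or 10 ng/well, in Opti-MEM) added to HeLa cells at ~80% confluence and incubated 24 h. Medium luciferase activity measured by Nano-Glo luminescence about 3 min after reagent addition; toxicity tested in parallel by resazurin.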

The results in this text go back to US20260008793A1, “IONIZABLE CATIONIC LIPIDS INCORPORATING SILICON” (ALDEXCHEM KFT., priority 2022, published 2026).

As to `CCCCCCCCOC(CCCCCN(CCCCO)CCCCCCOC(=O)C(CCCCCC)CCCCCCCC)O[Si](C)(C)OCC(CCCCCC)CCCCCCCC` (stereo not drawn) [Example 136, 18-hexyl-7-(4-hydroxybutyl)-15,15-dimethyl-13-(octyloxy)-14,16-dioxa-7-aza-15-silahexacosyl 2-hexyldecanoate], in data set [1], the “Zeta potential (mV)” value is reported as −13.28 mV, the PDI is listed as 0.259 and the “Size (nm)” value stood at 305.2 nm. In the data set with HeLa cells, the “Transfection* (Method A = 100 ng mRNA)” value worked out at 61666.

Regarding `CCCCCCCC[Si](C)(C)OC(CCCCCCC)OCCCCCCN(CCCCCCOC(CCCCCCC)O[Si](C)(C)CCCCCCCC)CCC1CCCN1C` (stereo not drawn) [Example 120, 6-((1-((dimethyl(octyl)silyl)oxy)octyl)oxy)-N-(6-((1-((dimethyl(octyl)silyl)oxy)octyl)oxy)hexyl)-N-(2-(1-methylpyrrolidin-2-yl)ethyl)hexan-1-amine], in data set [1], the “Zeta potential (mV)” value is −13.18 mV, the PDI amounted to 0.055 and the “Size (nm)” value worked out at 161.4 nm. For the same compound, in the data set with HeLa cells, the “Transfection* (Method A = 100 ng mRNA)” value is 469598.5.

With `CCCCCCCCO[Si](C)(C)O[Si](C)(C)OC(CCCCCCC)OCCCCCCN(CCCCO)CCCCCCOC(=O)C(CCCCCC)CCCCCCCC` (stereo not drawn) [Example 135, 15-heptyl-7-(4-hydroxybutyl)-17,17,19,19-tetramethyl-14,16,18,20-tetraoxa-7-aza-17,19-disilaoctacosyl 2-hexyldecanoate], in data set [1], the “Zeta potential (mV)” value is recorded as −16.11 mV, the PDI worked out at 0.158 and the “Size (nm)” value was 271.2 nm. Besides, in the data set on HeLa cells, the “Transfection* (Method A = 100 ng mRNA)” value was 538348.

For `CCCCCCCCOC(CCCCCN(CCCCO)CCCCCCOC(=O)C(CCCCCCCC)SCCCCC)O[Si](C)(C)CCCCCCCC` (stereo not drawn) [Example 177, 6-((6-((dimethyl(octyl)silyl)oxy)-6-(octyloxy)hexyl)(4-hydroxybutyl)amino)hexyl 2-(pentylthio)decanoate], in data set [1], the “Zeta potential (mV)” value was −14.50 mV, the PDI stood at 0.100 and the “Size (nm)” value came to 166 nm. Besides, the “Transfection* (Method A = 100 ng mRNA)” value in the data set with HeLa cells is listed as 691264.

Regarding `CCCCCCCCO[Si](C)(C)O[Si](C)(C)OC(CCCCCCC)OCCCCCCN(CCCCO)CCC[C@@H](C)C1CCC2C3CCC4C[C@H](OC)CC[C@]4(C)C3CC[C@@]21C` (stereo partly drawn) [Example 221, 13-heptyl-5-((4R)-4-((3R,10S,13R)-3-methoxy-10,13-dimethylhexadecahydro-1H-cyclopenta[a]phenanthren-17-yl)pentyl)-15,15,17,17-tetramethyl-12,14,16,18-tetraoxa-5-aza-15,17-disilahexacosan-1-ol], in data set [1], the “Zeta potential (mV)” value is on record as −13.99 mV, the PDI was 0.011 and the “Size (nm)” value was found to be 142.1 nm. Moreover, the “Transfection* (Method A = 100 ng mRNA)” value in the data set on HeLa cells amounted to 73949.

For `CCCCCCCCOC(CCCCCN(CCCCO)CCC[C@@H](C)C1CCC2C3CCC4C[C@H](OC)CC[C@]4(C)C3CC[C@@]21C)O[Si](C)(C)OCC(CCCCCC)CCCCCCCC` (stereo partly drawn) [Example 222, 16-hexyl-5-((4R)-4-((3R,10S,13R)-3-methoxy-10,13-dimethylhexadecahydro-1H-cyclopenta[a]phenanthren-17-yl)pentyl)-13,13-dimethyl-11-(octyloxy)-12,14-dioxa-5-aza-13-silatetracosan-1-ol], in data set [1], the “Zeta potential (mV)” value was −16.36 mV, the PDI turned out to be 0.121 and the “Size (nm)” value stood at 164.5 nm. Moreover, the “Transfection* (Method A = 100 ng mRNA)” value in the data set on HeLa cells was 1156093.

In the case of `CCCCCCCCC(CCCCCC)C(=O)OCCCCCCN(CCCCO)CCCCCCOC(CCCCCCC)O[Si](C)(C)CCCCCCCC` (stereo not drawn) [Example 129, 15-heptyl-7-(4-hydroxybutyl)-17,17-dimethyl-14,16-dioxa-7-aza-17-silapentacosyl 2-hexyldecanoate], in data set [1], the “Zeta potential (mV)” value is reported as −12.48 mV, the PDI amounted to 0.054 and the “Size (nm)” value is given as 132.9 nm. In the data set on HeLa cells, the “Transfection* (Method A = 100 ng mRNA)” value was 962783.

Regarding `CCCCCCCCOC(CCCCCN(CCCCO)CCC[C@@H](C)C1CCC2C3CCC4C[C@H](OC)CC[C@]4(C)C3CC[C@@]21C)O[Si](C)(C)CCCCCCCC` (stereo partly drawn) [Example 214, 4-((6-((dimethyl(octyl)silyl)oxy)-6-(octyloxy)hexyl)((4R)-4-((3R,10S,13R)-3-methoxy-10,13-dimethylhexadecahydro-1H-cyclopenta[a]phenanthren-17-yl)pentyl)amino)butan-1-ol], in data set [1], the “Zeta potential (mV)” value is given as −13.59 mV, the PDI is on record as 0.14 and the “Size (nm)” value stood at 191.2 nm. Besides, the “Transfection* (Method A = 100 ng mRNA)” value with HeLa cells is 318542.

In the case of `CCCCCCCCO[Si](C)(C)OC(CCCCCCC)OCCCCCCN(CCCCO)CCCCCCOC(=O)C(CCCCCC)CCCCCCCC` (stereo not drawn) [Example 131, 15-heptyl-7-(4-hydroxybutyl)-17,17-dimethyl-14,16,18-trioxa-7-aza-17-silahexacosyl 2-hexyldecanoate], in data set [1], the “Zeta potential (mV)” value is reported as −16.95 mV, the PDI came to 0.219 and the “Size (nm)” value is 244.2 nm. Further, the “Transfection* (Method A = 100 ng mRNA)” value in the data set on HeLa cells is recorded as 951145.

Turning to `CCCCCCCCOC(CCCCCCC)O[Si](C)(C)OCCCCCCN(CCCCO)CCCCCCOC(=O)C(CCCCCCCC)SCCCCC` (stereo not drawn) [Example 188, 17-heptyl-7-(4-hydroxybutyl)-15,15-dimethyl-14,16,18-trioxa-7-aza-15-silahexacosyl 2-(pentylthio)decanoate], in data set [1], the “Zeta potential (mV)” value is −18.1 mV, the PDI was found to be 0.08 and the “Size (nm)” value turned out to be 160.0 nm. For the same compound, the “Transfection* (Method A = 100 ng mRNA)” value in the data set on HeLa cells came to 11210992.

Take `CCCCCCCCOC(CCCCCCC)O[Si](C)(C)CCCCCCN(CCCCO)CCCCCCOC(=O)C(CCCCCC)CCCCCCCC` (stereo not drawn) [Example 138, 16-heptyl-7-(4-hydroxybutyl)-14,14-dimethyl-15,17-dioxa-7-aza-14-silapentacosyl 2-hexyldecanoate]: in data set [1], the “Zeta potential (mV)” value is given as −16.19 mV, the PDI is recorded as 0.104 and the “Size (nm)” value came to 211.7 nm. Also, the “Transfection* (Method A = 100 ng mRNA)” value with HeLa cells came out at 1216014.

For `CCCCCCCCOC(CCCCCN(CCCCO)CCCCCCOC(=O)C(CCCCCCCC)SCCCCC)O[Si](C)(C)OCC(CCCCCC)CCCCCCCC` (stereo not drawn) [Example 185, 18-hexyl-7-(4-hydroxybutyl)-15,15-dimethyl-13-(octyloxy)-14,16-dioxa-7-aza-15-silahexacosyl 2-(pentylthio)decanoate], in data set [1], the “Zeta potential (mV)” value is on record as −16.4 mV, the PDI was found to be 0.04 and the “Size (nm)” value was determined as 213.6 nm. Further, the “Transfection* (Method A = 100 ng mRNA)” value with HeLa cells stood at 1019830.

On to `CCCCCCCCC(SCCCCC)C(=O)OCCCCCCN(CCCCO)CCCCCCOC(CCCCCCC)O[Si](C)(C)CCCCCCCC` (stereo not drawn) [Example 178, 15-heptyl-7-(4-hydroxybutyl)-17,17-dimethyl-14,16-dioxa-7-aza-17-silapentacosyl 2-(pentylthio)decanoate], for which, in data set [1], the “Zeta potential (mV)” value was −13.00 mV, the PDI was 0.058 and the “Size (nm)” value was 209.9 nm. Besides, in the data set on HeLa cells, the “Transfection* (Method A = 100 ng mRNA)” value is 557798.

For `CCCCCCCCCCSC(CCCC)C(=O)OCCCCCCN(CCCCO)CCCCCCOC(CCCCCCC)O[Si](C)(C)CCCCCCCC` (stereo not drawn) [Example 167, 15-heptyl-7-(4-hydroxybutyl)-17,17-dimethyl-14,16-dioxa-7-aza-17-silapentacosyl 2-(decylthio)hexanoate], in data set [1], the “Zeta potential (mV)” value was −13.69 mV, the PDI was 0.04 and the “Size (nm)” value worked out at 202.9 nm. For the same compound, the “Transfection* (Method A = 100 ng mRNA)” value with HeLa cells came to 3110369.

As to `CCCCCCCCOC(CCCCCN(CCCCO)CCC[C@@H](C)C1CCC2C3CCC4C[C@H](OC)CC[C@]4(C)C3CC[C@@]21C)O[Si](C)(C)O[Si](C)(C)CCCCCCCC` (stereo partly drawn) [Example 218, 4-(((4R)-4-((3R,10S,13R)-3-methoxy-10,13-dimethylhexadecahydro-1H-cyclopenta[a]phenanthren-17-yl)pentyl)(6-(octyloxy)-6-((1,1,3,3-tetramethyl-3-octyldisiloxaneyl)oxy)hexyl)amino)butan-1-ol], in data set [1], the “Zeta potential (mV)” value was −12.88 mV, the PDI came to 0.028 and the “Size (nm)” value came to 165.6 nm. In the data set on HeLa cells, the “Transfection* (Method A = 100 ng mRNA)” value is on record as 94651.

As for `CC/C=C\C/C=C\C/C=C\C/C=C\C/C=C\CCCCN(CCCCO)CCCCCCOC(CCCCCCC)O[Si](C)(C)OCC(CCCCCC)CCCCCCCC` (stereo not drawn) [Example 203, 13-heptyl-18-hexyl-5-((5Z,8Z,11Z,14Z,17Z)-icosa-5,8,11,14,17-pentaen-1-yl)-15,15-dimethyl-12,14,16-trioxa-5-aza-15-silahexacosan-1-ol], in data set [1], the “Zeta potential (mV)” value was −14.95 mV, the PDI came out at 0.13 and the “Size (nm)” value came out at 139.2 nm. The “Transfection* (Method A = 100 ng mRNA)” value in the data set with HeLa cells amounted to 161894.

As to `CCCCCCCCOC(CCCCCCC)O[Si](C)(C)OCCCCCCN(CCCCO)CCCCCCOC(=O)C(CCCCCC)CCCCCCCC` (stereo not drawn) [Example 139, 17-heptyl-7-(4-hydroxybutyl)-15,15-dimethyl-14,16,18-trioxa-7-aza-15-silahexacosyl 2-hexyldecanoate], in data set [1], the “Zeta potential (mV)” value was −12.3 mV, the PDI is 0.14 and the “Size (nm)” value came to 137.4 nm. Moreover, the “Transfection* (Method A = 100 ng mRNA)” value with HeLa cells is recorded as 11829351.

As for `CCCCCCCCOC(CCCCCN(CCCCCC(OCCCCCCCC)O[Si](C)(C)CCCCCCCC)CCC1CCCN1C)O[Si](C)(C)CCCCCCCC` (stereo not drawn) [Example 116, 6-((dimethyl(octyl)silyl)oxy)-N-(6-((dimethyl(octyl)silyl)oxy)-6-(octyloxy)hexyl)-N-(2-(1-methylpyrrolidin-2-yl)ethyl)-6-(octyloxy)hexan-1-amine], in data set [1], the “Zeta potential (mV)” value is recorded as −14.17 mV, the PDI was found to be 0.092 and the “Size (nm)” value is recorded as 189.8 nm. Moreover, in the data set on HeLa cells, the “Transfection* (Method A = 100 ng mRNA)” value was determined as 118987.
